# Results taken from US20260144829A1, “SYNBIOTIC COMPOSITION, METABOLITES, AND METHOD OF PREVENTING AND TREATING OBESITY-RELATED DISEASE” (priority 2023, published 2026).
# “Also recorded” adds a separate entry of the source. Residues, ends and D or L forms follow the SMILES beside them.
# Test system: hepatic gene expression
# Test: Hepatic RNA-sequencing of treated mice
# Assay type: in vivo
# Settings: liver
# Experimental: To obtain a more comprehensive understanding of MTA's potential as an antiobesity molecule, hepatic RNA-sequencing was performed on mice treated with both MTA and B. longum to determine its underlying mechanism for preventing obesity. […] Then, we conducted an in-depth analysis of the regulated genes involved in these biological functions. […] Likewise, overexpression of inhibin beta-A, which is encoded by the Inhba gene, can stimulate mitochondrial energy metabolism and increase energy expenditure.
# Bile acids are regarded as important signaling molecules to regulate fatty acid, cholesterol, energy and glucose homeostasis; therefore, enhancing bile acid synthesis may be a strategy to avoid diet-induced obesity. Furthermore, the increased expression of Cyp7a1, which encodes the rate-limiting enzyme in the classic bile acid synthesis pathway, prevents high-fat diet-induced obesity, insulin resistance and atherosclerosis.
row,Compound,expression of Cyp7a1
1,"CSC[C@H]1O[C@@H](n2cnc3c(N)ncnc32)[C@H](O)[C@@H]1O [MTA, 5′-s-methyl-5′-thioadenosine]",up-regulated

# Test system: HepG2 cells
# Test: Lipid accumulation assay in uric acid-treated HepG2 cells
# Assay type: cell-based
# Settings: 120 μg/mL uric acid, 24 hours
# Experimental: The lipid accumulation assay was done. Briefly, HepG2 cells at 70% confluence were incubated in RPMI 1640 medium containing 120 μg/mL uric acid for 24 hours, which was used to increase the lipid accumulation. After being washed by PBS buffer, the cells were maintained in new RPMI 1640 medium containing the metabolites (5.0, 1.0, 0.5, 0.1, and 0.05 μg/mL, the dried metabolites were redissolved in RPMI 164 medium) and 120 μg/mL uric acid for another 24 hours. Cells maintained in pure RPMI 1640 medium were employed as control.
# To further identify bioactive metabolites produced by B. longum, we applied a fractionation approach followed by liquid chromatography-mass spectrometry (LC-MS) coupled with in vitro screening strategy (FIG. 2A). Briefly, the extraction method of B. longum BCRC12585 metabolites (that is, B. longum metabolites, or B. longum crude extract) is the same as in Example 2, and then twenty-five fractions derived from B. longum metabolites were prepared by pre-HPLC column, followed by individually testing the anti-lipid accumulation activity with HepG2 cells. […] To identify candidate metabolites from each active fraction, further analysis was performed by using liquid chromatography coupled with high resolution mass spectrometry (LC-MS/MS). […] Collectively, we integrated in vitro, in vivo, and metabolomics data to identify the bioactive metabolites which could be produced by B. longum.
row,Compound,lipid accumulation in HepG2 cells
1,"Nc1ncnc2c1ncn2[C@@H]1O[C@H](CO)[C@@H](OP(=O)(O)O)[C@H]1O [3-AMPP, 3-adenosine monophosphate]",significantly inhibited
2,"N[C@@H](CCC(=O)O)C(=O)O [GA, glutamic acid]",significantly inhibited
3,"CC(C)[C@H](NC(=O)[C@@H]1CCC(=O)N1)C(=O)O [Pyro-glu-val, pyro-glutamyl-valine] (HELM PEPTIDE1{[Glp].V}$$$$V2.0)",significantly inhibited
4,"O=C1CC[C@@H](C(=O)O)N1 [PyroGA, pyroglutamic acid]",significantly inhibited
5,Nc1ncnc2c1ncn2[C@@H]1O[C@H](CO)[C@@H](O)[C@H]1O [adenosine],significantly inhibited
6,CSCC[C@H](N)C(=O)O [methionine],significantly inhibited; also recorded: exhibited a lipid-lowering effect
7,CC(C)[C@H](N)C(=O)O [valine],significantly inhibited
